According to patent US20240208898A1, “ENAMINE N-OXIDES: SYNTHESIS AND APPLICATION TO HYPOXIA-RESPONSIVE PRODRUGS AND IMAGING AGENTS” (DANA-FARBER CANCER INSTITUTE, INC., priority 2021, published 2024):

Test system: BxPC-3 pancreatic cancer cell line
Assay: In-gel fluorescence imaging of cells labeled by enamine N-oxides
Type: cell-based
Description: Cells were seeded at a density of 200,000 cells per well in media [2 mL, RPMI (A431, H460, HeLa, Bx-PC3, MDA-MB-231) or DMEM (U251) supplemented with 5% heat-inactivated human serum (Sigma), penicillin (100 units/mL), and streptomycin (0.1 mg/mL)] in 6-well plates. Cells were incubated at 37° C. under ambient atmosphere with 5% CO2. After 24 h, the media was aspirated and replaced with fresh media [1 mL, RPMI (A431, H460, HeLa, Bx-PC3, MDA-MB-231) or DMEM (U251) supplemented with 5% heat-inactivated human serum, penicillin (100 units/mL), and streptomycin (0.1 mg/mL)] containing enamine N-oxide probe (200 mM in ethanol; 10 μM final concentration). Plates were then incubated at 37° C. under ambient (20% pO2) or various oxygenated conditions (5%, 1%, or 0.1% pO2) with 5% CO2. Oxygenated conditions were maintained using a hypoxia chamber (ProOx C21, Biospherix) in a cell culture incubator. […] PBS (1 mL) was then added to each well and cells were scraped off with a cell scraper. The cell suspensions were placed into microcentrifuge tubes and pelleted by spinning at 10,000×g for 5 minutes at 4° C. The supernatant was then removed, and the pellet was dissolved with an SDS solution (100 μL, 1% SDS in 50 mM Tris buffer, pH 8.0). The protein concentration was determined by BCA assay following the manufacturer's protocol (Pierce). The sample was then labeled using the copper-catalyzed azide-alkyne cycloaddition (CuAAC). […] The dried pellet was then resuspended in an SDS solution (50 μL, 1% SDS in 50 mM Tris, pH 8.0), and the protein concentration was determined by BCA assay. […] In-gel fluorescence was visualized by a laser scanner (Typhoon™ FLA 9500, GE) and quantified using ImageJ software. […] Detection was mediated by an anti-rabbit IR680-dye conjugated secondary antibody (LI-COR Biosciences, 925-68071) and imaged using a fluorescence scanner (Odyssey CLx, LI-COR Biosciences).

| Compound | labeling of cells under normoxia and hypoxia (Bx-PC3 cells, 10 μM, 12 h, in-gel fluorescence after CuAAC with TAMRA-azide) | labeling in cell culture (oxygen dependence) (BxPC-3, 48 h) | oxygen tension of probe activation (BxPC-3, over 48 h, CuAAC with TAMRA-azide) |
| --- | --- | --- | --- |
| C#CCN(CCCCCC(F)/C=C/[N+]([O-])(CC)CC)C(=O)c1ccc(C2=c3cc4c(cc3[Si](C)(C)c3cc5c(cc32)CCN5C)=[N+](C)CC4)c(C)c1 (stereo not drawn) [probe 42, Si700-enamine N-oxide] | labeled Bx-PC3 cells in a hypoxia-dependent manner | – | – |
| C#CCCCCC(F)/C=C/[N+]([O-])(CC)CC (stereo not drawn) [probe 39, (E)-N,N-diethyl-3-fluoronon-1-en-8-yn-1-amine oxide] | – | oxygen-dependent labeling | ca. 1 % pO2 |
